ChEMBL document CHEMBL3885881, “DrugMatrix”

Organism: Rattus norvegicus
Experiment: DrugMatrix - Regimen: Daily Repeat
Format: toxicity, organism-based, Sprague-Dawley
Design: regimen Daily Repeat, gender Male, age 6-8 weeks
Details: in vivo, po, route oral GAVAGE, vehicle 100 % SALINE; for ABSOLUTE BASOPHIL / ABSOLUTE EOSINOPHIL / ABSOLUTE LYMPHOCYTE / ABSOLUTE MONOCYTE / ABSOLUTE SEGMENTED NEUTROPHIL / BASOPHIL / EOSINOPHIL / ERYTHROCYTE COUNT / HEMATOCRIT / HEMOGLOBIN / LEUKOCYTE COUNT / LYMPHOCYTE / MEAN CORPUSCULAR HEMOGLOBIN / MEAN CORPUSCULAR HEMOGLOBIN CONCENTRATION / MEAN CORPUSCULAR VOLUME / MONOCYTE / NEUTROPHIL / NUCLEATED RED BLOOD CELLS / PLATELET COUNT: tissue Blood; for ALANINE AMINOTRANSFERASE / ALBUMIN / ALKALINE PHOSPHATASE / ASPARTATE AMINOTRANSFERASE / BLOOD UREA NITROGEN / CARBON DIOXIDE / CHLORIDE / CHOLESTEROL / CREATINE PHOSPHOKINASE / CREATININE / GLUCOSE / LACTATE DEHYDROGENASE / LIPASE / PHOSPHORUS / POTASSIUM / SODIUM / TOTAL BILIRUBIN / TOTAL PROTEIN / URIC ACID: tissue Plasma
[1] = 0 mg/kg, 72 h, dose level Control, time 3 day
[2] = 0 mg/kg, 120 h, dose level Control, time 5 day
[3] = 29 mg/kg, 72 h, dose level Low, time 3 day

Compound: Cc1ccnc2c1NC(=O)c1cccnc1N2C1CC1 [NEVIRAPINE]
- ABSOLUTE BASOPHIL [1]: 0 CELLS/uL
- ABSOLUTE EOSINOPHIL [1]: 37 CELLS/uL
- ABSOLUTE LYMPHOCYTE [1]: 12359.33 CELLS/uL
- ABSOLUTE MONOCYTE [1]: 122.67 CELLS/uL
- ABSOLUTE SEGMENTED NEUTROPHIL [1]: 847.67 CELLS/uL
- BASOPHIL [1]: 0%
- EOSINOPHIL [1]: 0.33%
- ERYTHROCYTE COUNT [1]: 5.75 x10E6/uL
- HEMATOCRIT [1]: 36.08%
- HEMOGLOBIN [1]: 14.07 G/DL
- LEUKOCYTE COUNT [1]: 13.37 x10E3/uL
- LYMPHOCYTE [1]: 92.5%
- MEAN CORPUSCULAR HEMOGLOBIN [1]: 24.47 pg
- MEAN CORPUSCULAR HEMOGLOBIN CONCENTRATION [1]: 38.98 G/DL
- MEAN CORPUSCULAR VOLUME [1]: 62.78 fL
- MONOCYTE [1]: 1%
- NEUTROPHIL [1]: 6.17%
- NUCLEATED RED BLOOD CELLS [1]: 0.17 /100WBC
- PLATELET COUNT [1]: 1202.17 x10E3/uL
- ALANINE AMINOTRANSFERASE [1]: 50.67 u/L
- ALBUMIN [1]: 4.13 G/DL
- ALKALINE PHOSPHATASE [1]: 356.33 u/L
- ASPARTATE AMINOTRANSFERASE [1]: 78.17 u/L
- BLOOD UREA NITROGEN [1]: 14.17 mg/dL
- CARBON DIOXIDE [1]: 31.33 mmol/L
- CHLORIDE [1]: 98.5 MEQ/L
- CHOLESTEROL [1]: 76.5 mg/dL
- CREATINE PHOSPHOKINASE [1]: 248.33 u/L
- CREATININE [1]: 0.2 mg/dL
- GLUCOSE [1]: 144 mg/dL
- LACTATE DEHYDROGENASE [1]: 107 u/L
- LIPASE [1]: 9.83 u/L
- PHOSPHORUS [1]: 12.8 mg/dL
- POTASSIUM [1]: 6.75 MEQ/L
- SODIUM [1]: 142 MEQ/L
- TOTAL BILIRUBIN [1]: 0.18 mg/dL
- TOTAL PROTEIN [1]: 5.98 G/DL
- URIC ACID [1]: 1.42 mg/dL
- ABSOLUTE BASOPHIL [2]: 0 CELLS/uL
- ABSOLUTE EOSINOPHIL [2]: 0 CELLS/uL
- ABSOLUTE LYMPHOCYTE [2]: 8681.17 CELLS/uL
- ABSOLUTE MONOCYTE [2]: 79.83 CELLS/uL
- ABSOLUTE SEGMENTED NEUTROPHIL [2]: 689 CELLS/uL
- BASOPHIL [2]: 0%
- EOSINOPHIL [2]: 0%
- ERYTHROCYTE COUNT [2]: 5.49 x10E6/uL
- HEMATOCRIT [2]: 33.55%
- HEMOGLOBIN [2]: 13.1 G/DL
- LEUKOCYTE COUNT [2]: 9.45 x10E3/uL
- LYMPHOCYTE [2]: 92.33%
- MEAN CORPUSCULAR HEMOGLOBIN [2]: 23.92 pg
- MEAN CORPUSCULAR HEMOGLOBIN CONCENTRATION [2]: 39.07 G/DL
- MEAN CORPUSCULAR VOLUME [2]: 61.22 fL
- MONOCYTE [2]: 0.67%
- NEUTROPHIL [2]: 7%
- NUCLEATED RED BLOOD CELLS [2]: 0.17 /100WBC
- PLATELET COUNT [2]: 1001.17 x10E3/uL
- ALANINE AMINOTRANSFERASE [2]: 49.33 u/L
- ALBUMIN [2]: 4.07 G/DL
- ALKALINE PHOSPHATASE [2]: 300.33 u/L
- ASPARTATE AMINOTRANSFERASE [2]: 83.5 u/L
- BLOOD UREA NITROGEN [2]: 16 mg/dL
- CARBON DIOXIDE [2]: 29.67 mmol/L
- CHLORIDE [2]: 100.5 MEQ/L
- CHOLESTEROL [2]: 74.33 mg/dL
- CREATINE PHOSPHOKINASE [2]: 489.67 u/L
- CREATININE [2]: 0.35 mg/dL
- GLUCOSE [2]: 151 mg/dL
- LACTATE DEHYDROGENASE [2]: 133.67 u/L
- LIPASE [2]: 11.17 u/L
- PHOSPHORUS [2]: 10.88 mg/dL
- POTASSIUM [2]: 5.5 MEQ/L
- SODIUM [2]: 145.7 MEQ/L
- TOTAL BILIRUBIN [2]: 0.2 mg/dL
- TOTAL PROTEIN [2]: 6.05 G/DL
- URIC ACID [2]: 0.68 mg/dL
- ABSOLUTE BASOPHIL [3]: 0 CELLS/uL
- ABSOLUTE EOSINOPHIL [3]: 29.67 CELLS/uL
- ABSOLUTE LYMPHOCYTE [3]: 8345.33 CELLS/uL
- ABSOLUTE MONOCYTE [3]: 0 CELLS/uL
- ABSOLUTE SEGMENTED NEUTROPHIL [3]: 725 CELLS/uL
- BASOPHIL [3]: 0%
- EOSINOPHIL [3]: 0.33%
- ERYTHROCYTE COUNT [3]: 5.42 x10E6/uL
- HEMATOCRIT [3]: 33.9%
- HEMOGLOBIN [3]: 13.2 G/DL
- LEUKOCYTE COUNT [3]: 9.1 x10E3/uL
- LYMPHOCYTE [3]: 91.67%
- MEAN CORPUSCULAR HEMOGLOBIN [3]: 24.43 pg
- MEAN CORPUSCULAR HEMOGLOBIN CONCENTRATION [3]: 38.93 G/DL
- MEAN CORPUSCULAR VOLUME [3]: 62.7 fL
- MONOCYTE [3]: 0%
- NEUTROPHIL [3]: 8%
- NUCLEATED RED BLOOD CELLS [3]: 0 /100WBC
- PLATELET COUNT [3]: 673.67 x10E3/uL
- ALANINE AMINOTRANSFERASE [3]: 74.33 u/L
- ALBUMIN [3]: 4.3 G/DL
- ALKALINE PHOSPHATASE [3]: 343.67 u/L
- ASPARTATE AMINOTRANSFERASE [3]: 123.67 u/L
- BLOOD UREA NITROGEN [3]: 10.33 mg/dL
- CARBON DIOXIDE [3]: 28.33 mmol/L
- CHOLESTEROL [3]: 68.67 mg/dL
- CREATINE PHOSPHOKINASE [3]: 179.33 u/L
- CREATININE [3]: 0.43 mg/dL
- GLUCOSE [3]: 142.67 mg/dL
- LACTATE DEHYDROGENASE [3]: 65.33 u/L
- LIPASE [3]: 15.67 u/L
- PHOSPHORUS [3]: 10.83 mg/dL
- TOTAL BILIRUBIN [3]: 0.13 mg/dL
- TOTAL PROTEIN [3]: 5.03 G/DL
- URIC ACID [3]: 0.37 mg/dL
- ABSOLUTE BASOPHIL (29 mg/kg, 120 h, dose level Low, time 5 day): 0 CELLS/uL
